Key:
[1] = test system: Gastric acid secretion; assay: Gastric acid secretion in the pylorus ligated rat; type: in vivo, male Sprague-Dawley rats; details: oral immediately after pylorus ligation, ligation 4 hours, read-out: Antisecretory activity ED50 (confidence limits p = 0.95)
Description: 1. Gastric acid secretion in the pylorus ligated rat The method of […]., Gruenstein M., Siplet H., Gastroenterology, 5, 43 (1945) was used, slightly modified according to the following: Male Sprague-Dawley rats weighing 150±5 g fasting since 48 hours were used. Pylorus ligation was performed for 4 hours. The products under exam were administered by the oral route immediately after the ligation.

[2] = test system: Stress ulcer; assay: Stress ulcer (restraint+immersion) in the rat; type: in vivo; details: po, 6 hours immersion at about 20° C., ulcer score 0 to 5, read-out: Antiulcer activity (stress ulcer) ED50 (confidence limits p = 0.95)
Description: 2. Stress ulcer (restraint+immersion) in the rat The method described by Takagi, K., Okabes, S., Jap. J. Pharmacol., 18, 9 (1968) has been used. The animals fasted for 48 hours were immobilized in a stress cage (drilled cylindrical tube 14.5×3.5 cm) and immersed in H2 O (at a temperature of about 20° C.) up to the xiphoid process. After 6 hours immersion the animals were sacrificed in excess ether, the stomach was drawn and opened along the great curvature. The ulcers were evaluated according to a score ranging from 0 to 5 assigning: 0.5 for each small ulcera (<3 mm) or in the presence of erosions or haemorrages 1 for each great ulcer (>3 mm). The oral treatment with the reference drug pirenzepine at the doses of 12.5--25--50 mg/kg has been carried out 1 hour before the stress.

[3] = test system: Carbachole salivation; assay: Charbacole salivation in the rat; type: in vivo, male Sprague-Dawley rats; details: 1 h, oral one hour before 1 mg/kg i.p. charbacole, read-out: Carbachole salivation ED50 (confidence limits p = 0.95)
Description: 3. Charbacole salivation in the rat The method cited by R. Turner: "Parasympatholytic Agents" in R. Turner "Screening Methods in Pharmacology" pag. 137. Academic Press. New York & London 1965, with slight changes, was used. Male Sprague-Dawley rats, average weight 150±5 g, fasted for 24 hours, were used. The salivation was induced by the intraperitoneal administration of 1 mg/kg of charbacole. The products under exam were administered orally one hour before the chollinergic stimulus.

[4] = test system: Tremors by oxotremorine; assay: Oxotremorine tremors in the mouse; type: in vivo; details: oral 60 minutes before 2 mg/kg i.p. oxotremorine, read-out: Tremors by oxotremorine ED50 (confidence limits p)
[5] = Acute toxicity; details: mouse, in vivo; Swiss mice, oral, observation 14 days
Description: The acute toxicity was determined by administering by oral route the substances under exam to Swiss mice; average weight 20±2 g. The observation period was 14 days. 10 Animals were used for each tested dose.

For `CN1CCN(CC(=O)N2c3ccsc3C(=O)Nc3cccnc32)CC1.Cl` [Example 3, 4-[(4-Methylpiperazin-1-yl)acetyl]-4,9-dihydro-10H-pyrido[3,2-b]thieno[3,2-e][1,4]-diazepin-10-one hydrochloride], the ED50 [1] was 27.6 mg/kg, the ED50 [2] was 55.9 mg/kg and the ED50 [3] was greater than 200 mg/kg. It also gave an ED50 [4] greater than 1000 mg/kg and an LD50 at 336 h [5] greater than 2000 mg/kg.
Molecule `CN1CCN(CC(=O)N2c3cscc3C(=O)Nc3cccnc32)CC1` [Example 13, 4-[(4-Methylpiperazin-1-yl)acetyl]-4,9-dihydro-10H-pyrido[3,2-b]thieno[3,4-e][1,4]-diazepin-10-one] has an ED50 [1] of 12.4 mg/kg, an ED50 [2] of 28.8 mg/kg and an ED50 [3] greater than 200 mg/kg. It also gave an ED50 [4] greater than 1000 mg/kg and an LD50 at 336 h [5] greater than 1000 mg/kg.
`Cc1scc2c1N(C(=O)CN1CCN(C)CC1)c1ncccc1NC2=O` [Example 14, 4-[(4-Methylpiperazin-1-yl)acetyl]-3-methyl-4,9-dihydro-10H-pyrido[3,2-b]thieno[3,4-e][1,4]-diazepin-10-one] showed an ED50 [1] of 3.12 mg/kg, an ED50 [2] of 4.43 mg/kg and an ED50 [3] of 3.36 mg/kg. The ED50 [4] was greater than 10000 mg/kg and the LD50 at 336 h [5] was greater than 500 mg/kg.
